Measured values: patent US4771060A, “Novel skin-whitening agent” (Teikoku Seiyaku Kabushiki Kaisha, priority 1986, dated 1988)

Columns and labels:
[1] = system: surface melanism in yellow goldfish; assay: Preventive effect on surface melanism in yellow goldfish; format: in vivo, goldfish (Ryukins); settings: then 0.9% NaCl 12 days, 12th day, 5 fish, control 100%
Protocol: (§1) Ryukins [a kind of goldfish (weighing 3-5 g, one group: 5 fish)] were fed in water containing 1 μg/l or 10 μg/l of pionine (No. 1 compound in the above Preparations) for 20 days. The goldfish were then transferred into a water bath filled with water containing 0.9% by weight of NaCl in order to induce melanism and fed for 12 days. As a control group, the fish were fed likewise except no active compound was used. The extent of surface melanism and the activity of tyrosinase in the group administered with pionine were compared with those of the control group.

[2] = system: tyrosinase; assay: Determination of tyrosinase activity in scales of treated goldfish; format: in vivo, goldfish (Ryukins); settings: scales on 12th day, control 0.06
Protocol: as §1
As samples to be tested, scales were picked from goldfish of each of groups on 12th day. The samples were each homogenized with 1M phosphate buffer (pH 6.8) and centrifuged. As to the supernatant, tyrosinase was determined by a colorimetry according to the procedure of N. H. Horowitz and Pomerantz (cf. Method in Enzymology, XVIIA, 615-626).

[3] = system: surface melanism in yellow goldfish; assay: Therapeutic effect on surface melanism in yellow goldfish; format: in vivo, goldfish (Ryukins); settings: for goldfish returned to their original yellow surface color: after 12 weeks, control 0%
Protocol: Ryukins (weighing 3-5 g) were fed in a 0.9% NaCl aqueous solution for 12 days to induce surface melanism. The goldfish were grouped into five fish each. In two experiment groups, the fish were fed in a water bath for 12 weeks, during which pionine was add in an amount of 1 μg/l and 10 μg/l, respectively, three times per week. In the control group, the fish were fed in pure water. The recovery from surface melanism of the experiment groups was compared with that of control group.

[4] = system: Black popeyed goldfish; assay: Action in normal black-goldfish; format: in vivo; settings: 10 μg/l three times per week, after 12 weeks
Protocol: Black popeyed goldfish (each group: 5 fish) were fed in a water bath. In experimental group, pionine was added to the water bath in a concentration of 10 μg/l, three times per week. In the control group, no pionine was added.

[5] = system: tyrosinase derived from mushroom; assay: Direct effect on tyrosinase activity (L-DOPA substrate); format: biochemical
Protocol: The direct effect of pionine to tyrosinase activity was studied. 0.1 ml of a solution of pionine having various concentrations was mixed with 0.1 ml of 290 unit/ml solution of tyrosinase derived from mushroom (Sigma). […]

[6] = system: yellow goldfish; assay: Toxicity in yellow goldfish; format: in vivo; settings: 5 mg/l in water for three days, ten yellow goldfish
[7] = Acute toxicity, oral, rats; settings: rat, in vivo, suspension in 0.5% sodium carboxymethylcellulose, 7 days
Protocol: A suspension of pionine in a 0.5% sodium carboxymethylcellulose solution was orally administered to Wistar rats (weighing about 130 g, one group: ten animal) with a stomach sonde. The number of dead rats were counted for 7 days, and LD50 (g/kg) was calculated by van der Werden's method. […] Thus, it is clear that pionine is a compound having an extremely wide safety range, taking into account the above experimental results that it is effective in a concentration of 10 μg/l for preventing and treating melanism of goldfish.

[8] = system: stains (chloasma) and pigmentations induced by inflammation; assay: Clinical test, oral pionine; format: in vivo, human; set-up: key to Findings on skin: -1: deepened; 0: not changed; +1: faded; +2: completely disappeared
Protocol: A hundred μg of pionine was orally administered to each of three patients having stains (chloasma) and each of three patients having pigmentations induced by inflammation, once a day when the patients were hungry. This test was continued for 6 months. The effect of pionine was evaluated and classified into four classes by the degree of color as follows:
-1: deepened, 0: not changed, +1: faded,
+2: completely disappeared.
Evaluation by the patients themselves is also mentioned therein. Meanwhile, a patch test as to known cosmetics which were used by the patients was made for all patients before the clinical test, and if the result was positive (i.e. the known cosmetics are […]), the use of the cosmetics was prohibited.

## CCCCCCCN1C(C)=CSC1=Cc1scc(C)[n+]1CCCCCCC [pionine, 4,4'-dimethyl-3,3'-di-n-heptyl-2,2'-monomethinethiazolocyanine iodide]
[1]; 1 μg/l in water for 20 days
  fish with surface melanism observed: 40%
[1]; 10 μg/l in water for 20 days
  fish with surface melanism observed: none
[2]; 1 μg/l group
  tyrosinase activity, ΔOD at 475 nm/mg protein/30 min: 0.05 /mg protein/30 min
[2]; 10 μg/l group
  tyrosinase activity, ΔOD at 475 nm/mg protein/30 min: 0.02 /mg protein/30 min
[3]; 1 μg/l three times per week
  goldfish returned to their original yellow surface color: 40%
[3]; 10 μg/l three times per week
  goldfish returned to their original yellow surface color: 80%
[3]; 1 and 10 μg/l groups, within three weeks
  recovery from surface melanism: not observed
[4]
  blackness of normal black goldfish versus control: no differences were observed
[5]; addition of 5×10^-2 to 10^-5 % of pionine
  effect on tyrosinase activity: did not affect
[5]; direct effect, summary statement
  tyrosinase inhibitory activity: no tyrosinase inhibitory activity
[5]; pionine 5 × 10^-2 %, 2 min., control 0.250
  ΔOD (at 475 nm): 0.248
[5]; pionine 5 × 10^-2 %, 5 min., control 0.540
  ΔOD (at 475 nm): 0.540
[5]; pionine 5 × 10^-2 %, 10 min., control 0.782
  ΔOD (at 475 nm): 0.786
[5]; pionine 5 × 10^-3 %, 2 min., control 0.250
  ΔOD (at 475 nm): 0.252
[5]; pionine 5 × 10^-3 %, 5 min., control 0.540
  ΔOD (at 475 nm): 0.544
[5]; pionine 5 × 10^-3 %, 10 min., control 0.782
  ΔOD (at 475 nm): 0.780
[5]; pionine 5 × 10^-4 %, 2 min., control 0.250
  ΔOD (at 475 nm): 0.252
[5]; pionine 5 × 10^-4 %, 5 min., control 0.540
  ΔOD (at 475 nm): 0.540
[5]; pionine 5 × 10^-4 %, 10 min., control 0.782
  ΔOD (at 475 nm): 0.784
[5]; pionine 5 × 10^-5 %, 2 min., control 0.250
  ΔOD (at 475 nm): 0.250
[5]; pionine 5 × 10^-5 %, 5 min., control 0.540
  ΔOD (at 475 nm): 0.538
[5]; pionine 5 × 10^-5 %, 10 min., control 0.782
  ΔOD (at 475 nm): 0.780
[6]
  abnormality: no abnormality was observed
  death of fish: no fish was died
[7]; female Wistar rats
  LD50 at 168 h: 500 mg/kg
[7]; male Wistar rats
  LD50 at 168 h: 470 mg/kg
[8]; 5/6 patients, 100 μg orally once a day, 6 months
  patients with positive effect: 83%
[8]; Run No. 1, 100 μg orally once a day
  Side effect: No
[8]; Run No. 1, Chloasma
  Evaluation by patients: effective
[8]; Run No. 1, Chloasma, 100 μg orally once a day, at 4th month
  Findings on skin: +2
[8]; Run No. 2, Chloasma
  Evaluation by patients: not effective
[8]; Run No. 2, Chloasma, 100 μg orally once a day, at 6th month
  Findings on skin: 0
[8]; Run No. 3, Chloasma
  Evaluation by patients: effective
[8]; Run No. 3, Chloasma, 100 μg orally once a day, at 5th month
  Findings on skin: +2
[8]; Run No. 4, Pigmentation after inflammation, 100 μg orally once a day, at 3rd month
  Findings on skin: +2
[8]; Run No. 5, Pigmentation after inflammation, 100 μg orally once a day, at 5th month
  Findings on skin: +2
[8]; Run No. 6, Pigmentation after inflammation, 100 μg orally once a day, at 3rd month
  Findings on skin: +1
[8]; six patients, 100 μg orally once a day, 6 months
  side effect in all patients: no side effect was observed
